From patent US20260049092A1, “ANTIBACTERIAL COMPOUNDS” (Blacksmith Medicines, Inc., priority 2022, published 2026)
Converted amounts (≈) assume the structure as drawn. Read-outs that look alike come from different tables or passages of the source.

Columns and labels:
Test in all cases: Bacterial susceptibility testing (MIC, broth microdilution)
Assay type in all cases: cell-based
E. coli ATCC25922 = conditions: Escherichia coli
Procedure, shortened: (§1)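 CLSI broth microdilution was run in cation-adjusted Mueller-Hinton broth with an inoculum of 3×10^5–7×10^5 CFU/mL and 2-fold compound dilutions. Plates were incubated in ambient air at 35° C for 18-24 h. MIC was the lowest concentration preventing visible growth (OD600 nm<0.05).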

K. pneumoniae ATCC13883 = conditions: Klebsiella pneumoniae
Procedure, shortened: as §1

P. aeruginosa ATCC27853 = conditions: Pseudomonas aeruginosa
Procedure, shortened: as §1

P. aeruginosa PAO1 = conditions: Pseudomonas aeruginosa
Procedure, shortened: as §1

[1] = ATCC25922, broth microdilution, cation adjusted Mueller-Hinton Broth, 35° C., 18-24 h, read-out: E. coli ATCC25922 MIC
[2] = ATCC13883, broth microdilution, cation adjusted Mueller-Hinton Broth, 35° C., 18-24 h, read-out: K. pneumoniae ATCC13883 MIC
[3] = ATCC27853, broth microdilution, cation adjusted Mueller-Hinton Broth, 35° C., 18-24 h, read-out: P. aeruginosa ATCC27853 MIC
[4] = PAO1, broth microdilution, cation adjusted Mueller-Hinton Broth, 35° C., 18-24 h, read-out: P. aeruginosa PAO1 MIC
[5] = ATCC25922, read-out: E. coli ATCC25922 MIC
[6] = ATCC13883, read-out: K. pneumoniae ATCC13883 MIC
[7] = ATCC27853, read-out: P. aeruginosa ATCC27853 MIC
[8] = PAO1, read-out: P. aeruginosa PAO1 MIC

Row | Structure (SMILES) | MIC (E. coli ATCC25922; [1]) | MIC (K. pneumoniae ATCC13883; [2]) | MIC (P. aeruginosa ATCC27853; [3]) | MIC (P. aeruginosa PAO1; [4]) | MIC (E. coli ATCC25922; [5]) | MIC (K. pneumoniae ATCC13883; [6]) | MIC (P. aeruginosa ATCC27853; [7]) | MIC (P. aeruginosa PAO1; [8])
1 | CC(=O)NCc1ccc(-c2ccc(C#C[C@@H](CO)n3ccnc3[C@H](C)O)cc2)cc1 (single isomer, unassigned) [Compound 143] | 4 µg/mL (≈ 9.91 µM) | 4 µg/mL (≈ 9.91 µM) | 8 µg/mL (≈ 19.8 µM) | 2 µg/mL (≈ 4.96 µM) | – | – | – | –
2 | C[C@H](O)c1nccn1[C@@H](C#Cc1ccc(-c2ccc(OC3CN(C(=O)N4CCOCC4)C3)cc2)cc1)CO [Compound 96, (3-((4′-((S)-4-hydroxy-3-(2-((S)-1-hydroxyethyl)-1H-imidazol-1-yl)but-1-yn-1-yl)-[1,1′-biphenyl]-4-yl)oxy)azetidin-1-yl)(morpholino)methanone] | – | – | – | – | 2 µg/mL (≈ 3.87 µM) | 8 µg/mL (≈ 15.5 µM) | 8 µg/mL (≈ 15.5 µM) | 8 µg/mL (≈ 15.5 µM)
3 | C[C@H](O)c1nccn1[C@@H](C#Cc1ccc(-c2ccc(OC3CCN(CC#N)CC3)cc2)cc1)CO (single isomer, unassigned) [Compound 103] | 1 µg/mL (≈ 2.13 µM) | 2 µg/mL (≈ 4.25 µM) | 2 µg/mL (≈ 4.25 µM) | 2 µg/mL (≈ 4.25 µM) | – | – | – | –
4 | CC1C(Oc2ccc(-c3ccc(C#C[C@@H](CO)n4ccnc4[C@H](C)O)cc3)cc2)CN1CC#N (mixture of isomers) [Compound 99] | 1 µg/mL (≈ 2.19 µM) | 2 µg/mL (≈ 4.38 µM) | 8 µg/mL (≈ 17.5 µM) | 4 µg/mL (≈ 8.76 µM) | – | – | – | –
5 | C[C@H](O)c1nccn1[C@@H](C#Cc1ccc(-c2ccc(O[C@H]3C[C@H](NCC#N)C3)cc2)cc1)CO (racemic) [Compound 121, 2-(((rac-trans)-3-((4′-((S)-4-hydroxy-3-(2-((S)-1-hydroxyethyl)-1H-imidazol-1-yl)but-1-yn-1-yl)-[1,1′-biphenyl]-4-yl)oxy)cyclobutyl)amino) acetonitrile] | 0.5 µg/mL (≈ 1.1 µM) | 1 µg/mL (≈ 2.19 µM) | 4 µg/mL (≈ 8.76 µM) | 1 µg/mL (≈ 2.19 µM) | – | – | – | –
6 | COC1CN(c2ccc(-c3ccc(C#C[C@@H](CO)n4ccnc4[C@H](C)O)cc3)cc2)C1 [Compound 110, (S)-2-(2-((S)-1-hydroxyethyl)-1H-imidazol-1-yl)-4-(4′-(3-methoxyazetidin-1-yl)-[1,1′-biphenyl]-4-yl)but-3-yn-1-ol] | 0.38 µg/mL (≈ 0.91 µM) | 1.2 µg/mL (≈ 2.87 µM) | > 32 µg/mL | > 32 µg/mL | – | – | – | –
7 | C[C@H](O)c1nccn1[C@@H](C#Cc1ccc(-c2ccc(CO[C@H]3COC[C@@H]3O)c(F)c2)cc1)CO (single isomer, unassigned) [Compound 45] | 1 µg/mL (≈ 2.14 µM) | 2 µg/mL (≈ 4.29 µM) | 4 µg/mL (≈ 8.57 µM) | 2 µg/mL (≈ 4.29 µM) | – | – | – | –
8 | C[C@H](O)c1nccn1[C@@H](C#Cc1ccc(-c2ccc(OC3COC[C@H]3O)c(F)c2)cc1)CO (mixture of isomers) [Compound 6, (rac-trans)-4-((3-fluoro-4′-((S)-4-hydroxy-3-(2-((S)-1-hydroxyethyl)-1H-imidazol-1-yl)but-1-yn-1-yl)-[1,1′-biphenyl]-4-yl)oxy)tetrahydrofuran-3-ol] | 2 µg/mL (≈ 4.42 µM) | 4 µg/mL (≈ 8.84 µM) | 4 µg/mL (≈ 8.84 µM) | 2 µg/mL (≈ 4.42 µM) | – | – | – | –
9 | C[C@H](O)c1nccn1[C@@H](C#Cc1ccc(-c2ccc([C@H]3C[C@](N)(C#N)C3)cc2)cc1)CO (racemic) [Compound 101, (rac-cis)-1-amino-3-(4′-((S)-4-hydroxy-3-(2-((S)-1-hydroxyethyl)-1H-imidazol-1-yl)but-1-yn-1-yl)-[1,1′-biphenyl]-4-yl)cyclobutane-1-carbonitrile] | 0.5 µg/mL (≈ 1.17 µM) | 1 µg/mL (≈ 2.34 µM) | 4 µg/mL (≈ 9.38 µM) | 1 µg/mL (≈ 2.34 µM) | – | – | – | –
10 | C[C@H](O)c1nccn1[C@@H](C#Cc1ccc(-c2ccc(O[C@@H]3C[S+]([O-])C[C@H]3O)cc2)cc1)CO (single isomer, unassigned) [Compound 74] | 4 µg/mL (≈ 8.57 µM) | 4 µg/mL (≈ 8.57 µM) | 2 µg/mL (≈ 4.29 µM) | 2 µg/mL (≈ 4.29 µM) | – | – | – | –
11 | C[C@H](O)c1nccn1[C@@H](C#Cc1ccc(-c2ccc(OC3CN(CC#N)C3)cc2F)cc1)CO (single isomer, unassigned) [Compound 63] | 0.5 µg/mL (≈ 1.09 µM) | 2 µg/mL (≈ 4.34 µM) | 4 µg/mL (≈ 8.69 µM) | 2 µg/mL (≈ 4.34 µM) | – | – | – | –
12 | C[C@H](O)c1nccn1[C@@H](C#Cc1ccc(-c2ccc(NC3COC[C@H]3O)cc2F)cc1)CO (single isomer, unassigned) [Compound 58] | 1 µg/mL (≈ 2.21 µM) | 4 µg/mL (≈ 8.86 µM) | 4 µg/mL (≈ 8.86 µM) | 4 µg/mL (≈ 8.86 µM) | – | – | – | –
13 | C[C@H](O)c1nccn1[C@@H](C#Cc1ccc(-c2ccc(NC3CN(CC#N)C3)cc2)cc1)CO (single isomer, unassigned) [Compound 66] | 1 µg/mL (≈ 2.26 µM) | 4 µg/mL (≈ 9.06 µM) | 4 µg/mL (≈ 9.06 µM) | 2 µg/mL (≈ 4.53 µM) | – | – | – | –
14 | C[C@H](O)c1nccn1[C@@H](C#Cc1ccc(-c2ccc(CO[C@@H]3COC[C@H]3O)cc2F)cc1)CO (single isomer, unassigned) [Compound 49] | 0.5 µg/mL (≈ 1.07 µM) | 1 µg/mL (≈ 2.14 µM) | 4 µg/mL (≈ 8.57 µM) | 2 µg/mL (≈ 4.29 µM) | – | – | – | –
15 | C[C@H](O)c1nccn1[C@@H](C#Cc1ccc(-c2ccc(O[C@H]3C[C@H](C#N)C3)cc2)cc1)CO (racemic) [Compound 130, (rac-trans)-3-((4′-((S)-4-hydroxy-3-(2-((S)-1-hydroxyethyl)-1H-imidazol-1-yl)but-1-yn-1-yl)-[1,1′-biphenyl]-4-yl)oxy) cyclobutane-1-carbonitrile] | 0.25 µg/mL (≈ 0.585 µM) | 1 µg/mL (≈ 2.34 µM) | > 32 µg/mL | 2 µg/mL (≈ 4.68 µM) | – | – | – | –
16 | C[C@H](O)c1nccn1[C@@H](C#Cc1ccc(-c2ccn(C)c(=O)c2)cc1)CO [Compound 112, 4-(4-((S)-4-hydroxy-3-(2-((S)-1-hydroxyethyl)-1H-imidazol-1-yl)but-1-yn-1-yl)phenyl)-1-methylpyridin-2(1H)-one] | > 32 µg/mL | > 32 µg/mL | > 32 µg/mL | > 32 µg/mL | – | – | – | –
17 | CNC(=O)C(C)Oc1ccc(-c2ccc(C#C[C@@H](CO)n3ccnc3[C@H](C)O)cc2)cc1 (mixture of isomers) [Compound 102, 2-((4′-((S)-4-hydroxy-3-(2-((S)-1-hydroxyethyl)-1H-imidazol-1-yl)but-1-yn-1-yl)-[1,1′-biphenyl]-4-yl)oxy)-N-methylpropanamide] | 2 µg/mL (≈ 4.61 µM) | 4 µg/mL (≈ 9.23 µM) | 8 µg/mL (≈ 18.5 µM) | 4 µg/mL (≈ 9.23 µM) | – | – | – | –
18 | C[C@H](O)c1nccn1[C@@H](C#Cc1ccc(-c2ccc([C@@H]3COC[C@H]3O)cc2)cc1)CO (single isomer, unassigned) [Compound 116] | 0.5 µg/mL (≈ 1.19 µM) | 2 µg/mL (≈ 4.78 µM) | 4 µg/mL (≈ 9.56 µM) | 1 µg/mL (≈ 2.39 µM) | – | – | – | –
19 | CC(=O)N1CC(Oc2ccc(-c3ccc(C#C[C@@H](CO)n4ccnc4[C@H](C)O)cc3)cc2)C1 [Compound 88, 1-(3-((4′-((S)-4-hydroxy-3-(2-((S)-1-hydroxyethyl)-1H-imidazol-1-yl)but-1-yn-1-yl)-[1,1′-biphenyl]-4-yl)oxy)azetidin-1-yl)ethan-1-one] | – | – | – | – | 1 µg/mL (≈ 2.24 µM) | 2 µg/mL (≈ 4.49 µM) | 4 µg/mL (≈ 8.98 µM) | 2 µg/mL (≈ 4.49 µM)
20 | Cc1cc(-c2ccc(C#C[C@@H](CO)n3ccnc3[C@H](C)O)cc2)ccc1O[C@@H]1COC[C@H]1O (single isomer, unassigned) [Compound 113] | 4 µg/mL (≈ 8.92 µM) | 8 µg/mL (≈ 17.8 µM) | > 32 µg/mL | 32 µg/mL (≈ 71.3 µM) | – | – | – | –
21 | C[C@H](O)c1nccn1[C@@H](C#Cc1ccc(-c2ccc(N[C@@H]3COC[C@H]3O)cc2)cc1)CO (single isomer, unassigned) [Compound 70] | 2 µg/mL (≈ 4.61 µM) | 4 µg/mL (≈ 9.23 µM) | 1 µg/mL (≈ 2.31 µM) | 1 µg/mL (≈ 2.31 µM) | – | – | – | –
22 | C[C@H](O)c1nccn1[C@@H](C#Cc1ccc(-c2ccc(O[C@H]3CCOC[C@@H]3O)c(F)c2)cc1)CO (single isomer, unassigned) [Compound 53] | 1 µg/mL (≈ 2.14 µM) | 4 µg/mL (≈ 8.57 µM) | 8 µg/mL (≈ 17.1 µM) | 4 µg/mL (≈ 8.57 µM) | – | – | – | –
23 | C[C@H](O)c1nccn1[C@@H](C#Cc1ccc(-c2ccc(O[C@H]3COC[C@@H]3O)c(F)c2)c(F)c1)CO (single isomer, unassigned) [Compound 11] | 1 µg/mL (≈ 2.13 µM) | 4 µg/mL (≈ 8.5 µM) | 8 µg/mL (≈ 17 µM) | 4 µg/mL (≈ 8.5 µM) | – | – | – | –
24 | C[C@H](O)c1nccn1[C@@H](C#Cc1ccc(-c2ccc(CC3CN(CC#N)C3)cc2)cc1)CO (single isomer, unassigned) [Compound 105] | 1 µg/mL (≈ 2.27 µM) | 1 µg/mL (≈ 2.27 µM) | 4 µg/mL (≈ 9.08 µM) | 4 µg/mL (≈ 9.08 µM) | – | – | – | –
25 | C[C@H](O)c1nccn1[C@@H](C#Cc1ccc(-c2ccc3c(c2)OCCO3)cc1)CO [Compound 82, (S)-4-(4-(2,3-dihydrobenzo[b][1,4]dioxin-6-yl)phenyl)-2-(2-((S)-1-hydroxyethyl)-1H-imidazol-1-yl) but-3-yn-1-ol] | 0.25 µg/mL (≈ 0.64 µM) | 1 µg/mL (≈ 2.56 µM) | > 32 µg/mL | 4 µg/mL (≈ 10.2 µM) | – | – | – | –
26 | C[C@H](O)c1nccn1[C@@H](C#Cc1ccc(-c2ccc(C3CN(CCC#N)C3)cc2)cc1)CO [Compound 140, 3-(3-(4′-((S)-4-hydroxy-3-(2-((S)-1-hydroxyethyl)-1H-imidazol-1-yl)but-1-yn-1-yl)-[1,1′-biphenyl]-4-yl)azetidin-1-yl)propanenitrile] | 0.25 µg/mL (≈ 0.567 µM) | 0.5 µg/mL (≈ 1.13 µM) | 4 µg/mL (≈ 9.08 µM) | 2 µg/mL (≈ 4.54 µM) | – | – | – | –
27 | C[C@H](O)c1nccn1[C@@H](C#Cc1ccc(-c2ccc(C3CCO3)cc2)cc1)CO (mixture of isomers) [Compound 106, (2S)-2-(2-((S)-1-hydroxyethyl)-1H-imidazol-1-yl)-4-(4′-(oxetan-2-yl)-[1,1′-biphenyl]-4-yl)but-3-yn-1-ol] | 0.25 µg/mL (≈ 0.644 µM) | 0.5 µg/mL (≈ 1.29 µM) | 4 µg/mL (≈ 10.3 µM) | 2 µg/mL (≈ 5.15 µM) | – | – | – | –
